From patent US4366311A, “Novel dianemycin derivative” (Taisho Pharmaceutical Co., Ltd., priority 1980, dated 1982)
Where a name gives a salt, the structure may show the parent alone.

Tests used:
toxoplasma RH strain = experiment: Anti-toxoplasma effect in cultivated mouse macrophage (Test Example 1); format: cell-based, in macrophage of normal ICR mice; conditions: 0.1 ppm compound in medium, 37° C., 48 hours
Protocol: (§1) Normal ICR mice were intraperitoneally injected with 1 ml of a sterilized 0.2% solution of glycogen in saline solution and, after 5 days, intraperitoneally injected with 5 ml of a Hank's solution containing heparin to collect macrophage.
(§2) After centrifugation and washing, the macrophage was diluted with a medium of TC-199 containing 20% of calf serum so that the resulting solution contained about 10^6 cells/ml of macrophage. 1 ml of this suspension was pipetted into a cultivation Petri dish containing circular cover glass of 1.5 cm in diameter, followed by cultivation for 24 hours in an incubator containing 5% of carbon dioxide.
(§3) 5×10^5 toxiplasma RH strain collected on the 2nd day after intraperitoneal infection of mice were brought into contact with the thus cultivated macrophage at 37° C. for about 1 hour, and non-infectingtoxiplasma RH strain were washed away using the same medium followed by adding thereto the same medium.
(§4) A drug-containing group was prepared by adding compound I sodium salt to the medium so that the final concentration of the compound became 0.1 ppm.
(§5) Medical effects were evaluated as follows; After cultivation at 37° C. for 48 hours, May-Grunwald/Giemsa double straining was conducted to determine the percentage of macrophage cells containing therein 1 to 5 toxoplasma or 6 or more toxoplasma, thus the infected control group was compared with the drug-added group.

macrophage = experiment: Cytotoxic effect on macrophage, observation under an optical microscope; format: cell-based, ICR mice; conditions: 0.1 ppm compound in medium
Protocol: as §1, §2, §3, §4, §5

Bacillus licheniformis = experiment: MIC, antibacterial effects (Test Example 2); format: cell-based; conditions: infusion agar medium, read-out: MIC (Minimum Inhibitory Concentration)
Protocol: (§6) MIC (Minimum Inhibitory Concentration) was measured according to the method specified by the Chemotherapeutic Society using a heat infusion agar medium containing compound I sodium salt, to examine antibacterial effects of the compound.

[1] = test system: Bacillus subtilis ATCC 6633; experiment: MIC, antibacterial effects (Test Example 2); format: cell-based; conditions: ATCC6633, infusion agar medium, read-out: MIC (Minimum Inhibitory Concentration)
Protocol: as §6

[2] = test system: Escherichia coli NIHJ C-2; experiment: MIC, antibacterial effects (Test Example 2); format: cell-based; conditions: NIHJC2, infusion agar medium, read-out: MIC (Minimum Inhibitory Concentration)
Protocol: as §6

[3] = test system: Staphylococcus aureus FDA 209 P; experiment: MIC, antibacterial effects (Test Example 2); format: cell-based; conditions: FDA209, infusion agar medium, read-out: MIC (Minimum Inhibitory Concentration)
Protocol: as §6

[4] = test system: Staphylococcus aureus Smith; experiment: MIC, antibacterial effects (Test Example 2); format: cell-based; conditions: infusion agar medium, read-out: MIC (Minimum Inhibitory Concentration)
Protocol: as §6

[5] = test system: Staphylococcus aureus TPR-23; experiment: MIC, antibacterial effects (Test Example 2); format: cell-based; conditions: TPR23, infusion agar medium, read-out: MIC (Minimum Inhibitory Concentration)
Protocol: as §6

[6] = test system: Staphylococcus epidermidis IID 866; experiment: MIC, antibacterial effects (Test Example 2); format: cell-based; conditions: IID866, infusion agar medium, read-out: MIC (Minimum Inhibitory Concentration)
Protocol: as §6

[7] = test system: Staphylococcus epidermidis TPR-25; experiment: MIC, antibacterial effects (Test Example 2); format: cell-based; conditions: TPR25, infusion agar medium, read-out: MIC (Minimum Inhibitory Concentration)
Protocol: as §6

[8] = test system: Streptococcus faecalis ATCC 8043; experiment: MIC, antibacterial effects (Test Example 2); format: cell-based; conditions: Enterococcus faecalis, ATCC8043, infusion agar medium, read-out: MIC (Minimum Inhibitory Concentration)
Protocol: as §6

[9] = Acute toxicity, LD50 in mice (Test Example 3); parameters: species or system mice (ddY strain, 4-week old); conditions: mouse, in vivo, ip; ddY male mice, intraperitoneal, mortality over 7 consecutive days; 5% gum arabic in saline
Protocol: Compound I sodium salt and the control drug of dianemycin sodium salt were respectively suspended in a 5% solution of gum arabic in saline solution.
Two groups of 7 ddY strain male mice (4-week old) were intraperitoneally injected with each of the above-described drug suspension. LD50 values (mg/kg) of the compounds were determined from the total mortality per group for 7 consecutive days to examine the acute toxicity.

Structure (SMILES) | Percentage of Toxoplasma-infected Macrophage, 1 to 5 Toxoplasma/cell (toxoplasma RH strain; infected control group 30.8) [%] | Percentage of Toxoplasma-infected Macrophage, 6 or more Toxoplasma/cell (toxoplasma RH strain; infected control group 31.8) [%] | cytotoxic effect (macrophage) | MIC (Bacillus licheniformis) [µg/mL] | MIC [1] [µg/mL] | MIC [2] [µg/mL] | MIC [3] [µg/mL] | MIC [4] [µg/mL] | MIC [5] [µg/mL] | MIC [6] [µg/mL] | MIC [7] [µg/mL] | MIC [8] [µg/mL] | LD50 at 168 h [9] [mg/kg]
C/C(=C\C(C)C1OC2(CCC(C)(C3CC(O)C(C)C4(OC(C5OC(O)(CO)C(C)CC5C)CC4C)O3)O2)CC(O)C1C)C(=O)C(C)CC(C)C(=O)O (centres unmarked) [Compound I sodium salt] | 0 | 0 | no cytotoxic effect | 12.5 | 25 | > 200 | 25 | 50 | 50 | 50 | 50 | 50 | 191
COC1CCC(OC2CC(C3(C)CCC4(CC(O)C(C)C(C(C)/C=C(\C)C(=O)C(C)CC(C)C(=O)O)O4)O3)OC3(OC(C4OC(O)(CO)C(C)CC4C)CC3C)C2C)OC1C (centres unmarked) [Dianemycin Sodium Salt, reference compound] | – | – | – | – | – | – | – | – | – | – | – | – | 7.2
